Patent US20030206968A1, “Fungicidal mixtures” (priority 1999, published 2003)

Columns and labels:
Assay type in all cases: in vivo
[1] = tested on: Blumeria graminis; test: Greenhouse, Blumeria graminis on barley, 4 days residual; settings: Example 32
Method: (§1) The trials are carried out under greenhouse (Examples 1 to 32) or field conditions (Examples 33 to 40) in residual or curative applications. The fungicides are applied in single treatments, or in a combination comprising an azolopyrimidine of formula I and a compound selected from the classes (A), (B) and (C) as defined above. The compounds are applied in form of an aqueous spray mix obtained from a concentrated formulation or the technical material.
(§2) 1. Seed is planted in 6 cm diameter plastic pots and maintained in the greenhouse.
(§3) 2. When the primary leaf is fully expanded in the case of cereals or several leaves are present in the case of dicots, formulated test compounds are sprayed with a three nozzle overhead fungicide sprayer to near run-off. Alternatively, a single nozzle overhead track sprayer is used for application of the compounds to cereals at a rate of 200 l/ha. Plants are then allowed to air-dry.
(§4) 3. Inoculation precedes treatment in the case of curative evaluations and follows treatment in case of residual evaluations. For inoculation of powdery mildew disease, plants are set up on greenhouse benches with bottom watering mats and inoculated by dusting them with conidia from infected plants. Between inoculation and treatment for curative evaluations and between treatment and inoculation for residual evaluations, plants are maintained in the greenhouse with bottom watering.
(§5) 4. Disease on the foliage as percent leaf area with disease symptoms/signs is evaluated about 7 days after inoculation. In the case of wheat, the tips and bases of the leaves are excluded from the evaluation. [formula]
(§6) 1. Technical compounds are formulated in a solvent/surfactant system consisting of 5% acetone and 0.05% Tween 20 in deionized water. Compounds are dissolved in acetone prior to addition of the water; the Tween 20 can be added through either the acetone or the water. Dilutions are made using the solvent/surfactant system. Formulated compounds are prepared using deionized water.
(§7) 2. Two kinds of controls are included: Plants treated with the solvent/surfactant solution and inoculated (Solvent Blank). Untreated plants which are inoculated (Inoculated Control).
(§8) Assessments of the diseases took place at the indicated day after the application of the compounds. Per cent infected leaf area infected was evaluated. The efficacy of the compounds/compounds mixtures to control the diseases was calculated by using the formula given above under item 4: […]
(§9) Synergy was calculated using the % disease control values of specific treatments for the two COLBY formula given hereinabove
Fungicidal efficacy of the mixture of (S)-Azolopyrimidine C in admixture with Azoxystrobin (4 days residual) against Blumeria graminis on barley. The tank mixes were obtained from technical material of (S)-Azolopyrimidine C and Azoxystrobin.

[2] = tested on: Puccinia recondita; test: Greenhouse, Puccinia recondita on wheat, 2 days curative; settings: Example 28
Method: as §1, §2, §3, §4
(§10) For inoculation of non-powdery mildew diseases, an aqueous spore suspension of the pathogen is applied to the plant and the plants are kept 1-2 days in a moist infection chamber before being returned to the greenhouse where they are maintained by bottom watering.
as §5, §6, §7, §8, §9
Fungicidal efficacy of the mixture of (S)-Azolopyrimidine C in admixture with Azoxystrobin or Trifloxystrobin (2 days curative) against Puccinia recondita on wheat. The tank mixes were obtained from technical material of (S)-Azolopyrimidine C and Azoxystrobin or Trifloxystrobin.

[3] = tested on: Blumeria graminis; test: Greenhouse, Blumeria graminis on barley, 2 days curative; settings: Example 29
Method: as §1, §2, §3, §4, §5, §6, §7, §8, §9
Fungicidal efficacy of the mixture of (S)-Azolopyrimidine C in admixture with Fenhexamid (2 days curative) against Blumeria graminis on barley. The tank mixes were obtained from technical material of (S)-Azolopyrimidine C and Fenhexamid.
Fungicidal efficacy of the mixture of (S)-Azolopyrimidine C in admixture with Azoxystrobin or Trifloxystrobin (2 days curative) against Blumeria graminis on barley. The tank mixes were obtained from technical material of (S)-Azolopyrimidine C and Azoxystrobin or Trifloxystrobin.

[4] = tested on: Blumeria graminis; test: Greenhouse, Blumeria graminis on wheat, 2 days curative; settings: Example 27
Method: as §1, §2, §3, §4, §5, §6, §7, §8, §9
Fungicidal efficacy of the mixture of (S)-Azolopyrimidine C in admixture with Azoxystrobin or Trifloxystrobin (2 days curative) against Blumeria graminis on wheat. The tank mixes were obtained from technical material of (S)-Azolopyrimidine C and Azoxystrobin or Trifloxystrobin.

[5] = tested on: Blumeria graminis; test: Field test, Blumeria graminis on wheat; settings: 17 days after application
Method: as §1
For the field study formulated Azolopyrimidine A, B or C and formulated compounds from the classes (A), (B) and (C) were used.
as §8, §9
The compounds are applied according to good agricultural practice in the form of an aqueous spray mix obtained from a concentrated formulation or the technical material at a rate of 400 l/ha. The disease control is evaluated according to the formula given for the greenhouse tests.
(§11) Fungicidal efficacy of the mixture of (S)-Azolopyrimidine C+cyproconazole in the field against Blumeria graminis on wheat 17 days after application The tank mix was obtained from a SC formulation containing 100 g (S)-Azolopyrimidine C per liter and an EC formulation containing 60 g cyproconazole per liter.
as §11, with “C+azoxystrobin” for “C+cyproconazole”, “a SC” for “an EC”, “250” for “60”, “azoxystrobin” for “cyproconazole”, “kg.” for “liter.”
Fungicidal efficacy of the mixture of Azolopyrimidine A and different cereal fungicides in the field against Blumeria graminis on wheat 15 days after application The tank mix was obtained from an SC formulation containing 100 g Azolopyrimidine A per liter and commercially available formulations of metconazole, epoxiconazole or kresoxim methyl, respectively.

[6] = tested on: Blumeria graminis; test: Greenhouse, Blumeria graminis on wheat, 4 days residual; settings: Example 30
Method: as §1, §2, §3, §4, §5, §6, §7, §8, §9
Fungicidal efficacy of the mixture of (S)-Azolopyrimidine C in admixture with Azoxystrobin or Trifloxystrobin (4 days residual) against Blumeria graminis on wheat. The tank mixes were obtained from technical material of (S)-Azolopyrimidine C and Azoxystrobin or Trifloxystrobin.

[7] = tested on: Puccinia recondita; test: Greenhouse, Puccinia recondita on wheat, 4 days residual; settings: Example 31
Method: as §1, §2, §3, §4, §10, §5, §6, §7, §8, §9
Fungicidal efficacy of the mixture of (S)-Azolopyrimidine C in admixture with Azoxystrobin or Trifloxystrobin (4 days residual) against Puccinia recondita on wheat. The tank mixes were obtained from technical material of (S)-Azolopyrimidine C and Azoxystrobin or Trifloxystrobin.

[8] = tested on: Alternaria solani; test: Greenhouse, Alternaria solani on tomatoes, 1 day residual; settings: Example 25; rate 16 g/ha
Method: as §1, §2, §3, §4, §10, §5, §6, §7, §8, §9
Fungicidal efficacy of the mixture of Azolopyrimidine C and different fungicides (1 day residual) against Alternaria solani on tomatoes The tank mix was obtained from an SC formulation containing 100 g Azolopyrimidine A per liter and WP formulations of dithianon (750 g/kg), captan (500 g/kg), cyprodinil (750 g/kg), mancozeb (800 g/kg), or a SC formulation of chlorothalonil (500 g/l), or a FS formulation of fenpiclonil (400 g/l), spectively.

[9] = tested on: Erysiphe cichoracearum; test: Greenhouse, Erysiphe cichoracearum on cucumbers, 1 day residual
Method: as §1, §2, §3, §4, §5, §6, §7, §8, §9
Fungicidal efficacy of the mixture of Azolopyrimidine C+triforine (1 day residual) against Erysiphe cichoracearum on cucumbers
the tank mix was obtained from a SC formulation containing 100 g of Azolopyrimidine C per liter and an DC formulation containing and 190 g of triforine per liter.
Fungicidal efficacy of the mixture of Azolopyrimidine C+cyprodinil (1 day residual) against Erysiphe cichoracearum on cucumbers The tank mix was obtained from a SC formulation containing 100 g of Azolopyrimidine C per liter and a WG formulation containing and 750 g of cyprodinil per kg.

[10] = tested on: Botrytis cinerea; test: Apple fruit Botrytis test, Botrytis cinerea on apple fruits, 3 day residual; settings: Example 5
Method: 1. Apples (Malus X domestica Borkh.) variety Golden Delicious are disinfected by washing them briefly in 70% ethanol. After drying the apples are marked with four short equal-distant lines indicating the positions to be wounded.
2. Corresponding with the marks, four holes are poked around the apple equator with a pipette tip. 10 μl of the treatment solution are pipetted into each hole.
3. Three hours after application, 10 μl of a conidial suspension of Botrytis cinerea are pipetted into each. For incubation, the treated/inoculated apples are set up for five days.
4. Disease occurs as rotten apple tissue surrounding the inoculated wounds. The diameter of the rotten zone around each wound is measured.
1. Technical compounds are formulated in a solvent system consisting of 5% acetone and 0.05% Tween 20 in deionized water. Compounds are dissolved in acetone prior to dilution with water. Formulated compounds are prepared using deionized water.
2. Three kinds of controls are included:
Assessments of the diseases took place at the indicated day after the application of the compounds. Per cent infected leaf area infected was evaluated. The efficacy of the compounds/compounds mixtures to control the diseases was calculated by using the formula: [formula]
as §9
Fungicidal efficacy of the mixture of Azolopyrimidine A+vinclozolin (3 day residual) against Botrytis cinerea on apple fruits The tank mix was obtained from technical material of Azolopyrimidine A and a WG formulation containing 500 g vinclozolin per kg.
Fungicidal efficacy of the mixture of Azolopyrimidine A+cyprodinil (3 day residual) against Botrytis cinerea on apple fruits The tank mix was obtained from technical material of Azolopyrimidine A and a WG formulation containing 750 g cyprodinil per kg.
Fungicidal efficacy of the mixture of Azolopyrimidine A+benomyl (3 day residual) against Botrytis cinerea on apple fruits The tank mix was obtained from technical material of Azolopyrimidine A and a WP formulation containing 500 g benomyl per kg.

[11] = tested on: Leptosphaeria nodorum; test: Greenhouse, Leptosphaeria nodorum on wheat, 3 day residual; settings: Example 1
Method: as §1, §2, §3, §4, §10, §5, §6, §7, §8, §9
Fungicidal efficacy of the mixture of Azolopyrimidine A+fenpropimorph (3 day residual) against Leptosphaeria nodorum on wheat The tank mix was obtained from technical material of Azolopyrimidine A and an EC formulation containing 750 g fenpropimorph per liter.
Fungicidal efficacy of the mixture of Azolopyrimidine A+tebuconazole (3 day residual) against Leptosphaeria nodorum on wheat The tank mix was obtained from technical material of Azolopyrimidine A and an EC formulation containing 250 g tebuconazole per liter.

CO/C=C(/C(=O)OC)c1ccccc1Oc1cc(Oc2ccccc2C#N)ncn1 [Azoxystrobin]
Observed Efficacy ([1]; dose rate 1.6 ppm): 0%
Observed Efficacy ([1]; dose rate 3.1 ppm): 3%
Observed Efficacy ([1]; dose rate 6.3 ppm): 3%
Observed Efficacy ([1]; dose rate 12.5 ppm): 3%
Observed Efficacy ([1]; dose rate 25 ppm): 2%
Observed Efficacy ([1]; dose rate 50 ppm): 9%
Observed Efficacy ([2]; dose rate 1.6 ppm): 0%
Observed Efficacy ([2]; dose rate 3.1 ppm): 25%
Observed Efficacy ([2]; dose rate 6.3 ppm): 48%
Observed Efficacy ([2]; dose rate 12.5 ppm): 85%
Observed Efficacy ([2]; dose rate 25 ppm): 95%
Observed Efficacy ([3]; dose rate 1.6 ppm): 0%
Observed Efficacy ([3]; dose rate 3.1 ppm): 10%
Observed Efficacy ([3]; dose rate 6.3 ppm): 21%
Observed Efficacy ([3]; dose rate 12.5 ppm): 49%
Observed Efficacy ([3]; dose rate 25 ppm): 73%
Observed Efficacy ([3]; dose rate 50 ppm): 87%
Observed Efficacy ([4]; dose rate 1.6 ppm): 0%
Observed Efficacy ([4]; dose rate 3.1 ppm): 2%
Observed Efficacy ([4]; dose rate 6.3 ppm): 21%
Observed Efficacy ([4]; dose rate 12.5 ppm): 28%
Observed Efficacy ([4]; dose rate 25 ppm): 48%
Observed Efficacy ([4]; dose rate 50 ppm): 61%
Observed Efficacy ([5]; azoxystrobin 75 g/ha alone): 49
Observed Efficacy ([6]; dose rate 3.1 ppm): 0%
Observed Efficacy ([6]; dose rate 6.3 ppm): 0%
Observed Efficacy ([6]; dose rate 12.5 ppm): 7%
Observed Efficacy ([6]; dose rate 25 ppm): 9%
Observed Efficacy ([6]; dose rate 50 ppm): 9%
Observed Efficacy ([7]; dose rate 3.1 ppm): 0%
Observed Efficacy ([7]; dose rate 6.3 ppm): 0%
Observed Efficacy ([7]; dose rate 12.5 ppm): 0%
Observed Efficacy ([7]; dose rate 25 ppm): 0%
Observed Efficacy ([7]; dose rate 50 ppm): 8%

O=C1C2CC=CCC2C(=O)N1SC(Cl)(Cl)Cl (centres unmarked) [captan]
Observed Efficacy [8]: 18%

N#Cc1c(Cl)c(Cl)c(Cl)c(C#N)c1Cl [chlorothalonil]
Observed Efficacy [8]: 13%

CC(C1CC1)C(O)(Cn1cncn1)c1ccc(Cl)cc1 (centres unmarked) [cyproconazole]
Observed Efficacy ([5]; cyproconazole 15 g/ha alone): 86
Observed Efficacy ([5]; cyproconazole 30 g/ha alone): 82

Cc1cc(C2CC2)nc(Nc2ccccc2)n1 [cyprodinil]
Observed Efficacy ([9]; Example 24, dose rate 4 ppm): 0%
Observed Efficacy ([9]; Example 24, dose rate 16 ppm): 29%
Observed Efficacy ([10]; dose rate 0.1 ppm): 2%
Observed Efficacy ([10]; dose rate 1 ppm): 46%
Observed Efficacy [8]: 13%

N#Cc1sc2c(=O)c3ccccc3c(=O)c=2sc1C#N [dithianon]
Observed Efficacy [8]: 50%

N#Cc1c[nH]cc1-c1cccc(Cl)c1Cl [fenpiclonil]
Observed Efficacy [8]: 76%

CC(Cc1ccc(C(C)(C)C)cc1)CN1C[C@@H](C)O[C@@H](C)C1 (some centres unmarked) [fenpropimorph]
Observed Efficacy ([11]; dose rate 0.5 ppm): 19%
Observed Efficacy ([11]; dose rate 5 ppm): 15%

O=CNC(N1CCN(C(NC=O)C(Cl)(Cl)Cl)CC1)C(Cl)(Cl)Cl (centres unmarked) [triforine]
Observed Efficacy ([9]; Example 23, dose rate 4 ppm): 0%
Observed Efficacy ([9]; Example 23, dose rate 16 ppm): 15%

mancozeb
Observed Efficacy [8]: 27%
